Publication PMC5218480 (PLoS ONE, 2017)

Tested on: MV-4-11 cells
Test: Gene expression microarray analysis (Affymetrix PrimeView) and GSEA
Format: cell-based, human
Set-up: RFU PODN (11730768_x_at) / Fold change /veh PODN (11730768_x_at) / RFU LINC00158 (11744669_a_at) / Fold change /veh LINC00158 (11744669_a_at) / RFU DUSP10 (11751237_a_at) / Fold change /veh DUSP10 (11751237_a_at) / RFU ID3 (11757404_x_at) / Fold change /veh ID3 (11757404_x_at) / RFU PLEKHG5 (11737974_s_at) / Fold change /veh PLEKHG5 (11737974_s_at) / RFU LRRC4B (11730491_at) / Fold change /veh LRRC4B (11730491_at) / RFU GIMAP4 (11747438_a_at) / Fold change /veh GIMAP4 (11747438_a_at) / RFU KRT8 (11758183_x_at) / Fold change /veh KRT8 (11758183_x_at) / RFU CNN1 (11734310_a_at) / Fold change /veh CNN1 (11734310_a_at) / RFU VPS37D (11726825_at) / Fold change /veh VPS37D (11726825_at) / RFU C10orf10 (11716522_x_at) / Fold change /veh C10orf10 (11716522_x_at) / RFU KIR2DL2 /// KIR2DL4 /// KIR2DL5A /// KIR2DL5B /// KIR2DS1 /// KIR2DS2 /// KIR2DS3 /// KIR2DS4 /// KIR3DL3 /// KIR3DL3 /// KIR3DS1 (11738374_at) / Fold change /veh KIR2DL2 /// KIR2DL4 /// KIR2DL5A /// KIR2DL5B /// KIR2DS1 /// KIR2DS2 /// KIR2DS3 /// KIR2DS4 /// KIR3DL3 /// KIR3DL3 /// KIR3DS1 (11738374_at) / RFU C1QL1 (11718748_at) / Fold change /veh C1QL1 (11718748_at) / RFU TMPRSS4 (11747572_a_at) / Fold change /veh TMPRSS4 (11747572_a_at) / RFU HAMP (11756126_x_at) / Fold change /veh HAMP (11756126_x_at) / RFU RNFT2 (11725882_a_at) / Fold change /veh RNFT2 (11725882_a_at) / RFU NR4A2 (11747474_a_at) / Fold change /veh NR4A2 (11747474_a_at) / RFU ABCC12 (11746883_a_at) / Fold change /veh ABCC12 (11746883_a_at) / RFU TMEM136 (11760407_x_at) / Fold change /veh TMEM136 (11760407_x_at) / RFU CLDN22 /// WWC2 (11732394_at) / Fold change /veh CLDN22 /// WWC2 (11732394_at) / RFU HLA-DPB1 (11760878_x_at) / Fold change /veh HLA-DPB1 (11760878_x_at) / RFU SPINT1 (11716480_a_at) / Fold change /veh SPINT1 (11716480_a_at) / RFU GAP43 (11754022_s_at) / Fold change /veh GAP43 (11754022_s_at) / RFU A4GNT (11735810_at) / Fold change /veh A4GNT (11735810_at) / RFU PRB3 (11715151_x_at) / Fold change /veh PRB3 (11715151_x_at) / RFU TUBB4B (11761932_at) / Fold change /veh TUBB4B (11761932_at) / RFU CAPN14 (11732068_a_at) / Fold change /veh CAPN14 (11732068_a_at) / RFU TMCC2 (11721928_a_at) / Fold change /veh TMCC2 (11721928_a_at) / RFU IRGQ (11745062_a_at) / Fold change /veh IRGQ (11745062_a_at) / RFU FAM174B (11720279_a_at) / Fold change /veh FAM174B (11720279_a_at) / RFU TMPRSS4 (11748680_a_at) / Fold change /veh TMPRSS4 (11748680_a_at) / RFU FAM212B (11763350_a_at) / Fold change /veh FAM212B (11763350_a_at) / RFU PLEKHG5 (11743358_a_at) / Fold change /veh PLEKHG5 (11743358_a_at) / RFU ZSCAN30 (11745921_a_at) / Fold change /veh ZSCAN30 (11745921_a_at) / RFU CMKLR1 (11741424_a_at) / Fold change /veh CMKLR1 (11741424_a_at) / RFU LOC101060620 /// MAPK8IP1 (11723275_at) / Fold change /veh LOC101060620 /// MAPK8IP1 (11723275_at) / RFU SPTSSB (11747773_x_at) / Fold change /veh SPTSSB (11747773_x_at) / RFU PRSS12 (11739890_at) / Fold change /veh PRSS12 (11739890_at) / RFU BIN1 (11741810_x_at) / Fold change /veh BIN1 (11741810_x_at) / RFU WNT11 (11732464_a_at) / Fold change /veh WNT11 (11732464_a_at) / RFU C10orf10 (11716521_a_at) / Fold change /veh C10orf10 (11716521_a_at) / RFU C5orf56 (11738089_at) / Fold change /veh C5orf56 (11738089_at) / RFU CYB561 (11721691_x_at) / Fold change /veh CYB561 (11721691_x_at) / RFU ANKRD19P (11752326_a_at) / Fold change /veh ANKRD19P (11752326_a_at) / RFU OR2T12 /// OR2T33 /// OR2T8 (11738714_s_at) / Fold change /veh OR2T12 /// OR2T33 /// OR2T8 (11738714_s_at) / RFU VCAN (11748164_a_at) / Fold change /veh VCAN (11748164_a_at) / RFU JSRP1 (11732532_at) / Fold change /veh JSRP1 (11732532_at) / RFU KRTAP10-11 (11738290_x_at) / Fold change /veh KRTAP10-11 (11738290_x_at) / RFU MYO3A (11730013_a_at) / Fold change /veh MYO3A (11730013_a_at) / RFU EBF3 (11725865_a_at) / Fold change /veh EBF3 (11725865_a_at) / RFU CAMK2N1 (11719241_x_at) / Fold change /veh CAMK2N1 (11719241_x_at) / RFU C5orf56 (11738088_a_at) / Fold change /veh C5orf56 (11738088_a_at) / RFU OLFML3 (11715873_a_at) / Fold change /veh OLFML3 (11715873_a_at) / RFU LOC100653217 /// NTM (11731650_a_at) / Fold change /veh LOC100653217 /// NTM (11731650_a_at) / RFU MAPK11 (11762145_a_at) / Fold change /veh MAPK11 (11762145_a_at) / RFU FIZ1 (11724087_x_at) / Fold change /veh FIZ1 (11724087_x_at) / RFU OASL (11726364_x_at) / Fold change /veh OASL (11726364_x_at) / RFU SOX15 (11748057_x_at) / Fold change /veh SOX15 (11748057_x_at) / RFU CD79A (11719716_a_at) / Fold change /veh CD79A (11719716_a_at) / RFU HIST1H1D (11736915_at) / Fold change /veh HIST1H1D (11736915_at) / RFU CASKIN2 (11723855_a_at) / Fold change /veh CASKIN2 (11723855_a_at) / RFU LOC730098 (11760151_x_at) / Fold change /veh LOC730098 (11760151_x_at) / RFU OR4N2 (11742367_at) / Fold change /veh OR4N2 (11742367_at) / RFU PRRT2 (11749266_a_at) / Fold change /veh PRRT2 (11749266_a_at) / RFU SNX32 (11753110_a_at) / Fold change /veh SNX32 (11753110_a_at) / RFU CDHR5 (11726645_a_at) / Fold change /veh CDHR5 (11726645_a_at) / RFU RCAN1 (11760418_a_at) / Fold change /veh RCAN1 (11760418_a_at) / RFU FAM167A (11723789_a_at) / Fold change /veh FAM167A (11723789_a_at) / RFU FAM26E (11764081_at) / Fold change /veh FAM26E (11764081_at) / RFU ISYNA1 (11749810_s_at) / Fold change /veh ISYNA1 (11749810_s_at) / RFU ACY1 (11761880_at) / Fold change /veh ACY1 (11761880_at) / RFU 11764098_at / Fold change /veh 11764098_at / RFU SAMD14 (11745864_x_at) / Fold change /veh SAMD14 (11745864_x_at) / RFU NPB (11741838_a_at) / Fold change /veh NPB (11741838_a_at) / RFU TMPRSS6 (11731388_a_at) / Fold change /veh TMPRSS6 (11731388_a_at) / RFU KRTAP10-2 (11738614_at) / Fold change /veh KRTAP10-2 (11738614_at) / RFU ARHGAP8 /// PRR5-ARHGAP8 (11727945_x_at) / Fold change /veh ARHGAP8 /// PRR5-ARHGAP8 (11727945_x_at) / RFU KRTAP5-7 /// NADSYN1 (11734609_at) / Fold change /veh KRTAP5-7 /// NADSYN1 (11734609_at) / RFU RASL12 (11751679_a_at) / Fold change /veh RASL12 (11751679_a_at) / RFU CDKN2B (11736163_a_at) / Fold change /veh CDKN2B (11736163_a_at) / RFU PRF1 (11729649_at) / Fold change /veh PRF1 (11729649_at) / RFU, ZNF638 /// ZNF638-IT1 / Fold change vs veh, ZNF638 /// ZNF638-IT1 / RFU, PANK3 / Fold change vs veh, PANK3 / RFU, SH3YL1 / Fold change vs veh, SH3YL1 / RFU, ZEB2 / Fold change vs veh, ZEB2 / RFU, NRIP1 / Fold change vs veh, NRIP1 / RFU, PTTG1IP / Fold change vs veh, PTTG1IP / RFU, CAPN2 / Fold change vs veh, CAPN2 / RFU, MED14 / Fold change vs veh, MED14 / RFU, SNORA58 / Fold change vs veh, SNORA58 / RFU, C1orf63 / Fold change vs veh, C1orf63 / RFU, LRRFIP1 / Fold change vs veh, LRRFIP1 / RFU, NDUFAF7 / Fold change vs veh, NDUFAF7 / RFU, SLC12A2 / Fold change vs veh, SLC12A2 / RFU, IBTK / Fold change vs veh, IBTK / RFU, ESF1 / Fold change vs veh, ESF1 / Fold change vs veh, TMEM50B / RFU, TAOK1 / Fold change vs veh, TAOK1 / RFU, ACBD3 / Fold change vs veh, ACBD3 / RFU, TMA16 / Fold change vs veh, TMA16 / RFU, RWDD3 / Fold change vs veh, RWDD3 / RFU, BCAT1 / Fold change vs veh, BCAT1 / RFU, EDEM3 / Fold change vs veh, EDEM3 / RFU, TMEM33 / Fold change vs veh, TMEM33 / RFU, WDR75 / Fold change vs veh, WDR75 / RFU, AHCTF1 / Fold change vs veh, AHCTF1 / RFU, TFRC / Fold change vs veh, TFRC / RFU, ZDHHC17 / Fold change vs veh, ZDHHC17 / RFU, NOM1 / Fold change vs veh, NOM1 / RFU, ARL8B / Fold change vs veh, ARL8B / RFU, ZBTB11 / Fold change vs veh, ZBTB11 / RFU, TAMM41 / Fold change vs veh, TAMM41 / RFU, KIAA1704 /// LOC100996395 / Fold change vs veh, KIAA1704 /// LOC100996395 / RFU, ING1 / Fold change vs veh, ING1 / RFU, TRMT61B / Fold change vs veh, TRMT61B / RFU, FUBP3 / Fold change vs veh, FUBP3 / RFU, TP53 / Fold change vs veh, TP53 / RFU, TNKS2 / Fold change vs veh, TNKS2 / RFU, ZFP14 / Fold change vs veh, ZFP14 / RFU, ACTR2 / Fold change vs veh, ACTR2 / RFU, PPP3R1 / Fold change vs veh, PPP3R1 / RFU, PIK3R1 / Fold change vs veh, PIK3R1 / RFU, HNRNPA1 / Fold change vs veh, HNRNPA1 / RFU, RNF170 / Fold change vs veh, RNF170 / RFU, ZNF28 / Fold change vs veh, ZNF28 / RFU, RNGTT / Fold change vs veh, RNGTT / RFU, OGT / Fold change vs veh, OGT / RFU, BRD1 / Fold change vs veh, BRD1 / RFU, MARS / Fold change vs veh, MARS / RFU, ZNF655 / Fold change vs veh, ZNF655 / RFU, FAHD1 / Fold change vs veh, FAHD1 / RFU, BDP1 / Fold change vs veh, BDP1 / RFU, LRRCC1 / Fold change vs veh, LRRCC1 / RFU, ARID1A / Fold change vs veh, ARID1A / RFU, ZNF146 / Fold change vs veh, ZNF146 / RFU, ZNF330 / Fold change vs veh, ZNF330 / RFU, GPN3 / Fold change vs veh, GPN3 / RFU, C9orf123 / Fold change vs veh, C9orf123 / RFU, N4BP2L2 / Fold change vs veh, N4BP2L2 / RFU, ARFIP1 / Fold change vs veh, ARFIP1 / RFU, FAM179B / Fold change vs veh, FAM179B / RFU, BCL10 / Fold change vs veh, BCL10 / RFU, UHRF1BP1L / Fold change vs veh, UHRF1BP1L / RFU, BET1 / Fold change vs veh, BET1 / RFU, CNOT2 / Fold change vs veh, CNOT2 / RFU, ZNF268 / Fold change vs veh, ZNF268 / Fold change vs veh, ZNF507 / RFU, DGCR2 / Fold change vs veh, DGCR2 / RFU, WDSUB1 / Fold change vs veh, WDSUB1 / Fold change vs veh, HSP90B1 /// MIR3652 / RFU, ADSS / Fold change vs veh, ADSS / RFU, GK / Fold change vs veh, GK / RFU, ZNF148 / Fold change vs veh, ZNF148 / RFU, TAF9 / Fold change vs veh, TAF9 / RFU, SLC1A5 / Fold change vs veh, SLC1A5 / RFU, SLMO2 / Fold change vs veh, SLMO2 / RFU, ABCC4 / Fold change vs veh, ABCC4 / RFU, LOC101060439 /// RAP1B / Fold change vs veh, LOC101060439 /// RAP1B / RFU, RFX7 / Fold change vs veh, RFX7 / RFU, GTPBP10 / Fold change vs veh, GTPBP10 / RFU, CNEP1R1 / Fold change vs veh, CNEP1R1 / RFU, BIVM-ERCC5 /// ERCC5 / Fold change vs veh, BIVM-ERCC5 /// ERCC5 / RFU, ILF3 / Fold change vs veh, ILF3 / RFU 11762660_at / Fold change /veh 11762660_at / RFU VCAN (11757783_s_at) / Fold change /veh VCAN (11757783_s_at) / RFU DDX43 (11728927_at) / Fold change /veh DDX43 (11728927_at) / RFU KRT8 (11758188_x_at) / Fold change /veh KRT8 (11758188_x_at) / RFU NKD1 (11759106_at) / Fold change /veh NKD1 (11759106_at) / RFU SRD5A1 (11742802_a_at) / Fold change /veh SRD5A1 (11742802_a_at) / RFU TPSAB1 /// TPSB2 (11721975_s_at) / Fold change /veh TPSAB1 /// TPSB2 (11721975_s_at) / RFU GSTM3 (11746129_a_at) / Fold change /veh GSTM3 (11746129_a_at) / RFU IL23R (11737362_x_at) / Fold change /veh IL23R (11737362_x_at) / RFU TMEM51 (11727254_a_at) / Fold change /veh TMEM51 (11727254_a_at) / RFU PIWIL2 (11732686_x_at) / Fold change /veh PIWIL2 (11732686_x_at) / RFU ORM1 (11744905_x_at) / Fold change /veh ORM1 (11744905_x_at) / RFU CCDC152 (11743942_at) / Fold change /veh CCDC152 (11743942_at) / RFU ECM1 (11717891_a_at) / Fold change /veh ECM1 (11717891_a_at) / RFU IL23R (11748794_a_at) / Fold change /veh IL23R (11748794_a_at) / RFU TNFAIP8L3 (11732012_x_at) / Fold change /veh TNFAIP8L3 (11732012_x_at) / RFU MBOAT4 (11741988_at) / Fold change /veh MBOAT4 (11741988_at) / RFU 11764193_at / Fold change /veh 11764193_at / RFU TMEM53 (11763286_at) / Fold change /veh TMEM53 (11763286_at) / RFU MAGEB2 (11727129_at) / Fold change /veh MAGEB2 (11727129_at) / RFU TMEM200A (11744735_a_at) / Fold change /veh TMEM200A (11744735_a_at) / RFU CCDC152 (11751479_a_at) / Fold change /veh CCDC152 (11751479_a_at) / RFU FAM211A (11726209_a_at) / Fold change /veh FAM211A (11726209_a_at) / RFU RGS16 (11746705_a_at) / Fold change /veh RGS16 (11746705_a_at) / RFU VCAN (11755009_s_at) / Fold change /veh VCAN (11755009_s_at) / RFU RHOB (11743442_s_at) / Fold change /veh RHOB (11743442_s_at) / RFU RGS16 (11720943_a_at) / Fold change /veh RGS16 (11720943_a_at) / RFU RGS16 (11720944_at) / Fold change /veh RGS16 (11720944_at) / RFU, VPS4B / Fold change vs veh, VPS4B / RFU, CREB1 / Fold change vs veh, CREB1 / RFU, DNAJC13 / Fold change vs veh, DNAJC13 / RFU, GNAQ / Fold change vs veh, GNAQ / RFU, CDK5R1 / Fold change vs veh, CDK5R1 / RFU, ZRANB3 / Fold change vs veh, ZRANB3 / RFU, CUL4A / Fold change vs veh, CUL4A / RFU, CCNY / Fold change vs veh, CCNY / RFU, UFL1 / Fold change vs veh, UFL1 / RFU, COG3 / Fold change vs veh, COG3 / RFU, DIAPH2 / Fold change vs veh, DIAPH2 / RFU, SKA2 / Fold change vs veh, SKA2 / RFU, AFF3 / Fold change vs veh, AFF3 / RFU, LMF1 / Fold change vs veh, LMF1 / RFU, IPO11 / Fold change vs veh, IPO11 / RFU, DFFB / Fold change vs veh, DFFB / RFU, FOXP1 / Fold change vs veh, FOXP1 / RFU, CARD8 / Fold change vs veh, CARD8 / RFU, STRN3 / Fold change vs veh, STRN3 / RFU, ADK / Fold change vs veh, ADK / RFU, RASSF2 / Fold change vs veh, RASSF2 / RFU, WIPF1 / Fold change vs veh, WIPF1 / RFU, LARP1B / Fold change vs veh, LARP1B / RFU, RASA1 / Fold change vs veh, RASA1 / RFU, RB1 / Fold change vs veh, RB1 / RFU, PPFIA1 / Fold change vs veh, PPFIA1 / RFU, MAT2A / Fold change vs veh, MAT2A / RFU, CCT5 / Fold change vs veh, CCT5 / RFU, WDR92 / Fold change vs veh, WDR92 / RFU, CUX1 / Fold change vs veh, CUX1 / RFU, TTC7A / Fold change vs veh, TTC7A / RFU, TMEM135 / Fold change vs veh, TMEM135 / RFU, DEPTOR / Fold change vs veh, DEPTOR / RFU, CPM / Fold change vs veh, CPM / RFU, DNAJB6 / Fold change vs veh, DNAJB6 / RFU, CACNA2D3 / Fold change vs veh, CACNA2D3 / RFU, DTX4 / Fold change vs veh, DTX4 / RFU, TFCP2 / Fold change vs veh, TFCP2 / RFU, GMCL1 /// GMCL1P1 / Fold change vs veh, GMCL1 /// GMCL1P1 / RFU, AEBP2 / Fold change vs veh, AEBP2 / RFU, SNHG1 /// SNORD22 /// SNORD25 /// SNORD26 /// SNORD27 /// SNORD28 /// SNORD29 /// SNORD31 / Fold change vs veh, SNHG1 /// SNORD22 /// SNORD25 /// SNORD26 /// SNORD27 /// SNORD28 /// SNORD29 /// SNORD31 / Fold change (Aza/veh), C12orf56 (ProbeSet 11735607_a_at) / Fold change (ACY-1035/veh), C12orf56 (ProbeSet 11735607_a_at) / Fold change (Aza/veh), FGFR1OP (ProbeSet 11751329_s_at) / Fold change (ACY-1035/veh), FGFR1OP (ProbeSet 11751329_s_at) / Fold change (Aza/veh), VPS36 (ProbeSet 11739960_a_at) / Fold change (ACY-1035/veh), VPS36 (ProbeSet 11739960_a_at) / RFU SYPL1 (11715823_x_at) / Fold change /veh SYPL1 (11715823_x_at) / RFU IGFBP7 (11715501_s_at) / Fold change /veh IGFBP7 (11715501_s_at) / RFU REEP3 (11722064_at) / Fold change /veh REEP3 (11722064_at) / RFU IGLL1 (11728026_x_at) / Fold change /veh IGLL1 (11728026_x_at): dose or concentration left out as unconfirmed
Conditions: ProbeSet 11745260_x_at; LIST B

## Nc1ccc(-c2cccs2)cc1NC(=O)c1ccc2c(c1)cc(C1CC1)n2CCN1CCOCC1 [ACY-1035]
  RFU, SLC12A2: 27.90 RFU
